Results: PMC11491004, “CHF6523 data suggest that the phosphoinositide 3-kinase delta isoform is not a suitable target for the management of COPD” (Respiratory Research, 2024)

How the values were obtained:
sputum cell counts = assay: Cell count in induced sputum; assay type: in vivo, human; conditions: p < 0.05
Method: (§1) All assessment timings were based on the morning dose. Pre-dose on Days 1 and 28 of each treatment period, blood samples were taken for pharmacokinetic analyses, followed by forced oscillation (including slow vital capacity manoeuvres for inspiratory capacity [IC] and vital capacity [VC]), spirometry (forced expiratory volume in 1 s [FEV1] and forced vital capacity [FVC]), and the COPD Assessment Test (CAT). Blood samples were also taken up to 12 h post-dose on Days 1 and 28 for pharmacokinetic analyses, with blood samples for biomarker assessment pre-dose on Day 1 and 2 h post-dose on Day 28, and spirometry pre-dose on Days 20 and 24. […]
(§2) Fold-change from baseline in cell counts, target biomarkers in sputum and blood, and PIP3 were log-transformed and analysed using an analysis of covariance (ANCOVA) model, with treatment, patient, and period as fixed effects, and baseline value as covariate. Changes from baseline in spirometry, forced oscillation and CAT endpoints were analysed using a similar ANCOVA model, but without log transformation. Rescue medication data were analysed using an analysis of variance model, including treatment, period and patient as fixed effects. […]
To induce sputum, patients with FEV1 ≥0.8 L inhaled nebulised hypertonic saline at increasing concentrations (3%, then 4% and finally 5%), with FEV1 monitored for safety after each concentration. […]

[1] = system: genes in blood and sputum; assay: Transcriptomics (RNA-seq) in blood and sputum; assay type: in vivo, human
Method: PAXgene RNA blood samples and induced sputum samples collected in Trizol were analysed at Almac Diagnostic Services (Craigavon, Northern Ireland, UK). RNA extraction and quality assessment of the PAXGene blood and sputum samples were performed, prior to downstream next generation sequencing (NGS). To minimise any technical variability, samples were randomised into processing batches for RNA extraction and NGS library preparation.
After extraction, all RNA underwent quality assessment. PAXGene RNA samples were assessed using a combination of Nanodrop (quantity) and the Agilent Tapestation (integrity), and Sputum RNA samples were assessed using the Qubit RNA assay (quantity) and Agilent Tapestation (integrity). Nanodrop was used for quantity assessment of RNA extracted from sputum in order to preserve a sample for downstream library preparation input.
Upon successful completion of the quality assessment, samples underwent library preparation using Kapa RNA Hyperprep with Riboerase kit. PAXGene Blood RNA samples were also treated with globin depletion oligos. Following library preparation, all generated libraries underwent quality assessment (quantification via Quant-iT dsDNA high-sensitivity assay, and fragment size assessment via the Agilent Tapestation) before being loaded on to a NovaSeq 6000 and sequenced with a total read length of 2x76bp, to a read budget of 50 million paired end reads (total 100 million reads) per sample. Processing control samples were included in the processing batch. Upon completion of sequencing, the quality of sequencing was assessed for the following parameters: clusters passing filter, Q30 scores, error rate, cluster density and read distribution.
Raw sequence data in FASTQ format were subject to a number of quality control assessment steps hosted on the DNAnexus cloud platform. Basic sequencing metrics such as GC content were calculated from unaligned reads using FastQC. Potential ribosomal RNA (rRNA) contamination was assessed using the Burrows-Wheeler Aligner (BWA) and samtools flagstat to determine the number of reads aligning to a ribosomal RNA (rRNA) sequence database. Read alignment to the human reference genome GRCh38 was then performed using StarAlign, with outputs used to calculate post-alignment quality control (QC) metrics such as duplication rate, calculated using Picard MarkDuplicates and a housekeeping coverage metric using a custom script. […] Both pre- and post alignment QC metrics were then reviewed to check for potential problems originating from the sequencing run or starting library material.
The aim was to identify genes that were differentially expressed in response to treatment with CHF6523 from blood and sputum samples.
The ANCOVA model was specified as change from pre-dose to post-dose expression as dependent variable. The independent variables were treatment (reference: placebo), patient, period, and pre-dose expression.
Functional enrichment was performed on those differentially expressed gene lists that had at least 20 genes with FDR<0.05 using ToppFun enrichment on the ToppGene website (https://toppgene.cchmc.org/enrichment.jsp, accessed 05 May 2023 [4]). The background of the enrichment used were those genes that were available in the original datamatrix.

[2] = Spirometry (pre-dose FEV1 and FVC); assay type: in vivo, human
Method: (§3) All assessment timings were based on the morning dose. Pre-dose on Days 1 and 28 of each treatment period, blood samples were taken for pharmacokinetic analyses, followed by forced oscillation (including slow vital capacity manoeuvres for inspiratory capacity [IC] and vital capacity [VC]), spirometry (forced expiratory volume in 1 s [FEV1] and forced vital capacity [FVC]), and the COPD Assessment Test (CAT). Blood samples were also taken up to 12 h post-dose on Days 1 and 28 for pharmacokinetic analyses, with blood samples for biomarker assessment pre-dose on Day 1 and 2 h post-dose on Day 28, and spirometry pre-dose on Days 20 and 24. Sputum was induced prior to each treatment period for baseline determination of biomarkers, and post-dose on Day 20 for collection of phosphatidylinositol (3,4,5)-trisphosphate (PIP3), and on Days 24 and 28 for collection of biomarkers.
(§4) Fold-change from baseline in cell counts, target biomarkers in sputum and blood, and PIP3 were log-transformed and analysed using an analysis of covariance (ANCOVA) model, with treatment, patient, and period as fixed effects, and baseline value as covariate. Changes from baseline in spirometry, forced oscillation and CAT endpoints were analysed using a similar ANCOVA model, but without log transformation. Rescue medication data were analysed using an analysis of variance model, including treatment, period and patient as fixed effects. Other data, including the proportion of days on which patients coughed and the cough VAS results, are presented descriptively only. Further details, including the transcriptomics, mass-spectrometry and Olink proteomics, bioinformatics and multi-omic data integration are in the supplement.

[3] = Safety and tolerability: adverse events; conditions: safety set N = 42
Method: Safety and tolerability were evaluated throughout the study in terms of the occurrence of adverse events, blood chemistry, haematology and urinalysis, vital signs, and 12-lead electrocardiograms. […] Throughout the study, patients were permitted to use salbutamol as rescue medication, but not within 6 h prior to any spirometry assessment – any rescue medication intake was also captured in the daily diary.
The safety set, used in the analysis of all safety variables, was all randomised patients who received at least one dose of study drug. […] Given the cross-over design, the inclusion of patients in the analysis sets was defined on a per-period basis.

PI3Kδ = PI3Kδ (Homo sapiens, UniProt O00329); assay: Target engagement: PIP3 in induced sputum; assay type: in vivo; parameters: from tissue; host or cells: induced sputum of COPD patients (in vivo dosing by inhalation)
Chain of PI3Kδ (O00329 whole entry): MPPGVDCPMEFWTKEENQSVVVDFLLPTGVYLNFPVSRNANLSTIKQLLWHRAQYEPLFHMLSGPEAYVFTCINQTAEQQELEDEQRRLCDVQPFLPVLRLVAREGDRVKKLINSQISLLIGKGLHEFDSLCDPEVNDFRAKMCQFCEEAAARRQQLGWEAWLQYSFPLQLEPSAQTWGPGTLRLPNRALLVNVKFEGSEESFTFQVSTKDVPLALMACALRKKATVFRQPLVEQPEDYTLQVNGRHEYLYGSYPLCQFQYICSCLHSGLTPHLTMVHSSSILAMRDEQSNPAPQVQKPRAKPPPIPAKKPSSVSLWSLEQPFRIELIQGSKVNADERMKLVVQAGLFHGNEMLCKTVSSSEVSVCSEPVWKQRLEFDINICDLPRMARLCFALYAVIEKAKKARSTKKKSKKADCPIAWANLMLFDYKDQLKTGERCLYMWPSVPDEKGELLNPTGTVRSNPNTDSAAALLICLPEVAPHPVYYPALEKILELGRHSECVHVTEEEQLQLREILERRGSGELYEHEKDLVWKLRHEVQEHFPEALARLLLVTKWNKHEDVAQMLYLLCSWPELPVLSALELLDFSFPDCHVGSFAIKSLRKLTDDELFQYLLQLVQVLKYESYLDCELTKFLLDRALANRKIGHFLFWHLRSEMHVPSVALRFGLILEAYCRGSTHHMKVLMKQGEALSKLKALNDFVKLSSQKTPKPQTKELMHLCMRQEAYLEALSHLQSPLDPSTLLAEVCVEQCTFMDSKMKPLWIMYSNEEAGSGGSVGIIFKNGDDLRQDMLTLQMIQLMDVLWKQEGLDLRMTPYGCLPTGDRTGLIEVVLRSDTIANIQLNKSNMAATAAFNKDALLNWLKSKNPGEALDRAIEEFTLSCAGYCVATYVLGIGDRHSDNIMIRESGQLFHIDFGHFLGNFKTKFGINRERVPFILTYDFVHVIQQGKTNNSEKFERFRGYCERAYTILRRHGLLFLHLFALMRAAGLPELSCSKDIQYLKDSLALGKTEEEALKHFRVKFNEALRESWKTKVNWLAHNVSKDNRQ
Chain of PI3Kδ (P27986 whole entry partner): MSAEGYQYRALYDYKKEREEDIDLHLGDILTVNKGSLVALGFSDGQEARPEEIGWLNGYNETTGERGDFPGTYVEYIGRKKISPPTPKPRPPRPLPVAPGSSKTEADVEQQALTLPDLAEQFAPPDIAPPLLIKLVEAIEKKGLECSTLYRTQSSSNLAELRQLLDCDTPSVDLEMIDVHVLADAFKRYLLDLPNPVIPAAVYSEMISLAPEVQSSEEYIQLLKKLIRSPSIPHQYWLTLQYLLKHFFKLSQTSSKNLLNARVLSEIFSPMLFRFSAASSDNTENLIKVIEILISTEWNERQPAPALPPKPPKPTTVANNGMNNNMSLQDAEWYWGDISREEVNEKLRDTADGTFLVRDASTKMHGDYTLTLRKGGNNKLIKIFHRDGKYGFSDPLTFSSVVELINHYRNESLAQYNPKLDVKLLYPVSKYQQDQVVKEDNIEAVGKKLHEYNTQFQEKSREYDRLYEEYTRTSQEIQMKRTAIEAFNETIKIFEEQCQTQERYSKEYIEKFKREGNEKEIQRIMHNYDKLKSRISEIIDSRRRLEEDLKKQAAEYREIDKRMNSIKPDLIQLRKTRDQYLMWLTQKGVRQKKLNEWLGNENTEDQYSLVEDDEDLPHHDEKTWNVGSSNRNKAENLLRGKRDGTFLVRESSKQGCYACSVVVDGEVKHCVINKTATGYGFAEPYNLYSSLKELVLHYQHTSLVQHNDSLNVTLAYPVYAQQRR
Method: as §3, §4

[4] = system: target biomarkers in sputum; assay: Target biomarkers of inflammation in induced sputum; assay type: in vivo, human; conditions: p < 0.05; with the exception of IL-5
Method: as §1, §2

[5] = Cough episodes: daily diary and visual analogue scale; assay type: in vivo, human; conditions: for Mean cough VAS score (95% CI): VAS 100 mm, 0 no cough, 100 worst cough ever
Method: as §4

[6] = Parts 1 and 2, single and multiple ascending dose; some mild inhalation-related cough; cited from earlier work
[7] = system: ion channels implicated in the cough reflex; assay: Electrophysiology in-vitro examination; assay type: biochemical

In the case of `C[C@@H](c1oc(=O)c2ccccc2c1-c1cccc(CN2CCN(C)CC2)c1)n1nc(-c2cncc(O)c2)c2c(N)ncnc21` [CHF6523], the “CHF6523–placebo differences in sputum cell counts” value (sputum cell counts) is reported as “no statistically significant”, the “Differentially expressed genes in blood” value ([1]; blood, RNA-seq, 24 patients) is reported as “No differentially expressed genes” and the “|log2FC| of the six genes with |log2FC| >1” value ([1]; sputum) is reported as 1.019–1.067. The “TLR1 log2FC” value ([1]; sputum, FDR = 0.0155) was 0.71, the “TLR10 log2FC” value ([1]; sputum, FDR = 0.0418) was 0.48 and the “TLR6 log2FC” value ([1]; sputum, FDR = 0.0451) was 0.52. For the same compound, the “Genes significantly differentially expressed in sputum” value ([1]; sputum, RNA-seq, FDR < 0.05, more than 38,000 genes evaluated) was 126 genes, the “Differentially expressed genes in sputum that were upregulated” value ([1]; sputum, of 126) was 119 genes and the “Change from baseline in pre-dose FEV1: CHF6523–placebo difference (95% CI)” value ([2]; Day 20) was −79 (−149, −9) mL. For the same compound, the “Change from baseline in pre-dose FVC: CHF6523–placebo difference (95% CI)” value ([2]; Day 20) was −38 (−191, 116) mL, the “Change from baseline in pre-dose FEV1: CHF6523–placebo difference (95% CI)” value ([2]; Day 24) was −79 (−141, −17) mL and the “Change from baseline in pre-dose FVC: CHF6523–placebo difference (95% CI)” value ([2]; Day 24) was −25 (−170, 120) mL. For the same compound, the “Change from baseline in pre-dose FEV1: CHF6523–placebo difference (95% CI)” value ([2]; Day 28) was −146 (−242, −50) mL, the “Adverse events leading to death” value [3] was 0 Patients (%) and the “Adverse events: COVID-19” value [3] was 5 (11.9%) Patients (%). The “Sputum PIP3 adjusted geometric mean fold change from baseline [95% CI]” value (PI3Kδ; Day 20) was 0.703 [95% CI 0.606, 0.814], the “Decrease from baseline in sputum PIP3 levels” value (PI3Kδ; Day 20, 2 mg twice daily inhaled) was 29.7% and the “Sputum PIP3 adjusted ratio CHF6523 vs placebo [95% CI]” value (PI3Kδ; Day 20, p = 0.001) was 0.705 [0.580, 0.856]. The “Sputum PIP3 difference between groups (reduction vs. placebo)” value (PI3Kδ; Day 20, p = 0.001) was 29.5%, the “CHF6523–placebo differences in target biomarkers in sputum” value [4] was “no statistically significant” and the “Days on which patients coughed, adjusted mean” value ([5]; daily diary, 2 mg twice daily inhaled, 95% CI 63.5%, 84.5%) was 74.0%. The “Mean cough VAS score (95% CI)” value ([5]; evening) was 31.3 (22.1, 40.4) mm, the “Cough events not resolving within 1 h after inhalation” value ([5]; in vivo) was 3.2% and the “Mean cough VAS score (95% CI)” value ([5]; morning) was 30.3 (95% CI 21.3, 39.3) mm. The “Safety profile in healthy volunteers” value [6] was “acceptable safety profile” and the “Impact on ion channels implicated in the cough reflex” value [7] was “no discernible impact”.
